Consider eleven molecules from ChEMBL document CHEMBL1156544, “Bioactive brominated metabolites from the red sea sponge Suberea mollis” (2008).

Molecules are shown by their SMILES. The source made the active and inactive calls. No cut-off for these calls is given here.

The subject of assay [1] is Pseudomonas aeruginosa. As to the kind of experiment: Antibacterial activity against Pseudomonas aeruginosa ATCC 9027 assessed as inhibition zone diameter after 24 hrs by agar diffusion method. The assay is classed as functional.
In assay [2] the test system is Staphylococcus aureus. Briefly: Antibacterial activity against Staphylococcus aureus ATCC 6538P assessed as inhibition zone diameter after 24 hrs by agar diffusion method. The assay is classed as functional.
Assay [3] relates to Klebsiella pneumoniae. As to the kind of experiment: Antibacterial activity against Klebsiella pneumoniae ATCC 10032 assessed as inhibition zone diameter after 24 hrs by agar diffusion method. The assay is classed as functional.
The subject of assay [4] is Radical scavenging activity. As to the kind of experiment: Antioxidant activity assessed as DPPH radical scavenging activity at 6 ug. Type of assay: functional.
The test system of assay [5] is Pseudomonas aeruginosa. Briefly: Antibacterial activity against Pseudomonas aeruginosa ATCC 9027 assessed as inhibition zone diameter at 30 ug/disk after 24 hrs by agar diffusion method. The assay is classed as functional. As to conditions: ATCC 9027, 24 h, read-out: IZ.
Assay [6] relates to Klebsiella pneumoniae. Briefly: Antibacterial activity against Klebsiella pneumoniae ATCC 10032 assessed as inhibition zone diameter at 30 ug/disk after 24 hrs by agar diffusion method. The assay is classed as functional. As to conditions: ATCC 10032, 24 h, read-out: IZ.
Assay [7] concerns Staphylococcus aureus. Briefly: Antibacterial activity against Staphylococcus aureus ATCC 6538P assessed as inhibition zone diameter at 30 ug/disk after 24 hrs by agar diffusion method. The assay is classed as functional. As to conditions: read-out: IZ.
Assay [8] concerns Klebsiella pneumoniae. Briefly: microbe, parasite or virus in culture. As to conditions: ATCC 10032, 24 h, read-out: IZ.
Description: Antibacterial activity against Klebsiella pneumoniae ATCC 10032 assessed as inhibition zone diameter at 5 ug/disk after 24 hrs by agar diffusion method
The test system of assay [9] is Pseudomonas aeruginosa. As to the kind of experiment: microbe, parasite or virus in culture. The conditions noted are these: ATCC 9027, 24 h, read-out: IZ.
Description: Antibacterial activity against Pseudomonas aeruginosa ATCC 9027 assessed as inhibition zone diameter at 5 ug/disk after 24 hrs by agar diffusion method
The test system of assay [10] is Staphylococcus aureus. Briefly: Antibacterial activity against Staphylococcus aureus ATCC 6538P assessed as inhibition zone diameter at 5 ug/disk after 24 hrs by agar diffusion method. Type of assay: functional, organism-based.
Assay [11] concerns Klebsiella pneumoniae. Briefly: Antibacterial activity against Klebsiella pneumoniae ATCC 10032 assessed as inhibition zone diameter at 15 ug/disk after 24 hrs by agar diffusion method. The assay is classed as functional, organism-based.
The subject of assay [12] is Pseudomonas aeruginosa. Briefly: Antibacterial activity against Pseudomonas aeruginosa ATCC 9027 assessed as inhibition zone diameter at 15 ug/disk after 24 hrs by agar diffusion method. The assay is classed as functional, organism-based.
The test system of assay [13] is Staphylococcus aureus. Briefly: Antibacterial activity against Staphylococcus aureus ATCC 6538P assessed as inhibition zone diameter at 15 ug/disk after 24 hrs by agar diffusion method. Type of assay: functional. The conditions noted are these: read-out: IZ.

Regarding `COC1=C(Br)[C@H](O)[C@](O)(CC#N)C=C1Br`, the “inhibition zone (IZ)” value in [1] worked out at 11 mm; in assay [2], 9 mm; in [3] it was 7 mm.
In the case of `COC1=C(Br)[C@@H]2OC(=O)C[C@]2(O)C=C1Br`, the result in assay [1] and in assay [3] was inactive. In addition, the “inhibition zone (IZ)” value in [2] was determined as 5 mm.
`CCOC(=O)Cc1cc(Br)c(O)c(Br)c1O`: the outcome in [4] was Active.
As for `COC1=C(Br)[C@H](O)[C@@]2(C=C1Br)CC(C(=O)NCCCOc1c(Br)cc(CCNC(=O)C3=NO[C@]4(C=C(Br)C(OC)=C(Br)[C@@H]4O)C3)cc1Br)=NO2`, the outcome in assay [1], in [2] and in [3] was inactive.
Consider `COC1=C(Br)[C@H](O)[C@@]2(C=C1Br)CC(C(=O)NCCCCNC(=O)C1=NO[C@]3(C=C(Br)C(OC)=C(Br)[C@@H]3O)C1)=NO2` [AEROTHIONIN], for which, in [1], the result was inactive. The “inhibition zone (IZ)” value in assay [2] is 5 mm; in assay [3], 3 mm.
For `O=C(N[C@H](CO)[C@H](O)c1ccc([N+](=O)[O-])cc1)C(Cl)Cl` [CHLORAMPHENICOL], the zone of inhibition at 30 µg/disc in assay [5] was 7 mm; in assay [6], 10 mm; in assay [7] it was 9 mm.
For `O=C(O)c1cn(C2CC2)c2cc(N3CCNCC3)c(F)cc2c1=O` [CIPROFLOXACIN], the zone of inhibition at 5 µg/disc in assay [8] came out at 8 mm; in [9] it was 2 mm. In assay [10], the outcome was inactive.
As for `CC[C@H]1OC(=O)[C@H](C)[C@@H](O[C@H]2C[C@@](C)(OC)[C@@H](O)[C@H](C)O2)[C@H](C)[C@@H](O[C@@H]2O[C@H](C)C[C@H](N(C)C)[C@H]2O)[C@](C)(O)C[C@@H](C)C(=O)[C@H](C)[C@@H](O)[C@]1(C)O` [ERYTHROMYCIN], the outcome in assay [11] and in [12] was inactive. The zone of inhibition at 15 µg/disc in assay [13] was determined as 8 mm.
Regarding `COC1=C(Br)[C@H](O)[C@@]2(C=C1Br)CC(C(=O)NCCCCCNC(=O)C1=NO[C@]3(C=C(Br)C(OC)=C(Br)[C@@H]3O)C1)=NO2` [HOMOAEROTHIONIN], the outcome in assay [1] and in assay [3] was inactive. Also, the “inhibition zone (IZ)” value in assay [2] was determined as 3 mm.
As to `CCOC(=O)NCCCCNC(=O)C1=NO[C@]2(C=C(Br)C(OC)=C(Br)[C@@H]2O)C1` [SUBEREAMOLLINE A], the result in assay [1] and in assay [3] was inactive. Further, in [2], the “inhibition zone (IZ)” value is given as 3 mm.
For the molecule `COC(=O)Cc1cc(Br)c(O)c(Br)c1O` [SUBEREAPHENOL B], the outcome in assay [1] and in assay [3] was inactive. In addition, the outcome in assay [4] was Active. The “inhibition zone (IZ)” value in assay [2] is 5 mm.
